Measurements reported in BindingDB's records for patent US20240158413 (Soter Biopharma, 2024).

Target: T1, Gonadotropin-releasing hormone receptor (Homo sapiens, UniProt P30968)
T1 sequence (P30968 whole entry): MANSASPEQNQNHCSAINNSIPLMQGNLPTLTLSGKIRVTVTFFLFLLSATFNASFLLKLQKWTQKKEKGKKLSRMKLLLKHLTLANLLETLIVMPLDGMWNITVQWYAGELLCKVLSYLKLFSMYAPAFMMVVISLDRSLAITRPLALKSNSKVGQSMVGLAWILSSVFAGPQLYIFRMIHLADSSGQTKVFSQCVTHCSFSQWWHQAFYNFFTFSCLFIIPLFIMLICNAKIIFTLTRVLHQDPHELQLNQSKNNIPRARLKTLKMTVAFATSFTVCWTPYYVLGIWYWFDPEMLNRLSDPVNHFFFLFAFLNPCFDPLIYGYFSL
Assay: Inhibitory Activity Assay
Experimental: GnRH/HEK293 (human embryonic kidney cell 293) cultured cells in the logarithmic growth phase were washed with DPBS (Dulbecco's phosphate buffered saline) buffer, and an appropriate amount of 0.05% EDTA (ethylenediaminetetraacetic acid)-trypsin was added. The cells were placed in a carbon dioxide incubator at 37° C. for digestion for 1-2 minutes, and then removed from the incubator. A medium was added to the cells to terminate the digestion. Cells were dispersed by repeated pipetting and harvested by centrifugation. The cells were seeded into a 384-well Poly-Lysine-Coated. Cell Plate at a density of 20,000 cells per well. […] The fluorescence signal was read. Then 10 μL of the reference compound as an agonist was added, and the fluorescent signal was read. […] The fluorescent signal was read. Then 10 μL of agonist with a concentration of 6×EC50 was added to the cell plate and the fluorescent signal was read.IC50 of the compound to inhibit the calcium flow of gonadotropin-releasing hormone receptor, i.e., the drug concentration when the Ca2+ flow was inhibited by half in the cells stably expressing the GnRH receptor, was calculated. The IC50 of the drug was calculated by GraphPad Prism 5.0 software.

| SMILES | IC50 [nM] |
| --- | --- |
| O=C(O)c1scc2c1C(=O)C(c1cc3c(cc1F)OCC1(CC1)COc1ccc(F)c(F)c1CO3)C(=O)N2 (configuration not stated) [US20240158413, Compound 2] | 9.2 |
| Cc1c(F)ccc2c1COc1cc(C3C(=O)Nc4csc(C(=O)O)c4C3=O)c(F)cc1OCCCO2 (configuration not stated) [US20240158413, Compound 1] | 3.2 |
